Measured values published in patent US4959356A, “Porphyrins for boron neutron capture therapy” (The United States of America as represented by the United …, priority 1989, dated 1990).
Like-named read-outs stand apart in the source and are kept apart here.

Legend:
tumor cell = conditions: in vitro; cited from earlier work
[1] = tested on: transplanted Harding-Passey melanomas; design: species or system BALB/c mice; conditions: mouse, in vivo
Protocol: The porphyrins of the present invention were tested for biodistribution and tumor uptake. BALB/c mice carrying transplanted Harding-[…] melanomas subcutaneously on the thigh or abdomen were given six intraperitoneal 0.5 mL injections over two days. The injection solutions contained 1 mg of compound/mL which is a total dose of 3 mg/mouse (approx. 150 μg porphyrin/g body weight or 32.2 μg B/g body weight). The compounds of formula II were completely water soluble and were allowed a 2 day clearance period post injection. The boron content was assayed by prompt gamma analysis using the gamma ray from the ^10 B(n,α)^7 Li reaction. Counts from the […] prompt-.tau.-ray are detected and analyzed using a narrow collimated thermal neutron beam from the Medical Research Reactor at Brookhaven National Laboratory. In this method the mice are dissected and whole organs or tissue samples (0.20-1.0 g) are measured for their boron content. […] Table 1 provides data for both the free base (compound of formula II wherein X is 2H) as well as the zinc chelate (compound of formula II wherein X is Zn), while Table 2 provides data for the free base. […] The long retention of porphyrins in tumor tissue can be exploited by waiting at least 4 days after it has cleared out of the blood before irradiation.

Substance	retention in tumor cell (tumor cell)	boron in the normal brain (in words) [1]	crossing of the blood-brain barrier [1]	retention of boron in tumor and clearance from blood (in words) [1]	tumor to blood ratio (comparison) [1]	uptake of boron into the tumor (in words) [1]	tumor to blood ratio ([1]; 2880 min)	tumor to blood ratio ([1]; 5760 min)	uptake in blood ([1]; ip, 48 h) [μgB/g TISSUE]	uptake in brain ([1]; ip, 48 h) [μgB/g TISSUE]	uptake in kidney ([1]; ip, 48 h) [μgB/g TISSUE]	uptake in liver ([1]; ip, 48 h) [μgB/g TISSUE]	uptake in lung ([1]; ip, 48 h) [μgB/g TISSUE]	uptake in muscle ([1]; ip, 48 h) [μgB/g TISSUE]	uptake in spleen ([1]; ip, 48 h) [μgB/g TISSUE]	uptake in tumor ([1]; ip, 48 h) [μgB/g TISSUE]
Na2 B12 H11 SH [BSH]	does not stay in the tumor cell but is easily washed out	–	–	–	–	–	–	–	–	–	–	–	–	–	–	–
dipotassium 2,4-bis-[2-(1,2-dicarbaundecaborate(-1))ethenyl]deuteroporphyrin IX [FREE BASE]	–	only a small amount of boron in the normal brain	does not cross the blood-brain barrier	retention of boron in the tumor with clearance from the blood over time	higher for the free base	substantial uptake of boron into the tumor	approximately 1:1	approx. 5:1	15.3 ± 1.5	2.0	16.8	38.0 ± 11.9	20.8	3.9	8.5	18.7 ± 3.4
